According to US5889018A, “Heterocyclic compounds, pharmaceutical compositions comprising them and process for the preparation thereof” (Egis Gyogyszergyar RT., priority 1994, dated 1999):
Like-named read-outs stand apart in the source and are kept apart here.

What was measured:
[1] = system: Male rats belonging to the Sprague Dawley strain; assay: Elevated Plus Maze Test on Rat, anxiolytic activity; format: in vivo; conditions: for minimal effective dose: Rattus norvegicus, po, 1 h, p.o., 60 minutes pretreatment, significant increase of time spent on the open arms, Sprague Dawley rats, read-out: Minimum effective dose (mg/kg, p.o.)
Experimental: 1.2 Elevated Plus Maze Test on Rat
The test was carried out with the aid of a wooden plus-shaped maze elevated to a height of 50 cm. Two arms (100 cm long and 15 cm wide)--opposite to one another--were enclosed up to a height of 40 cm along their longer sides and at the end. The other two arms were without walls (open arms). The central 15×15 cm part was open. Male rats belonging to the Sprague Dawley strain and weighing 220 to 260 g were used as test animals. After pretreatment lasting 60 minutes the animals were placed into the central part of the maze. During the 5 minutes observation period the following parameters were recorded: […]
time spent on the open arms time spent on the closed arms number of open arm entries number of closed arm entries.
The drug effect was expressed as percent increase of the time spent on the open arms and number of open arm entries. The minimum effective dose which caused a significant increase of the time spent on the open arms was calculated for every substance [Pelow, S., Chopin, P., File, S. E., Briley, M.: J. Neurocsi. Methods 14, 149-167 (1985)].

[2] = system: Male Wistar rats (Charles River); assay: Hole-Board Test, head-dipping activity; format: in vivo; conditions: Rattus norvegicus, po, 1 h, p.o., one hour before testing, from head-dipping activity, read-out: Minimum effective dose (mg/kg, p.o.)
Experimental: The experiment was carried out according to a slightly modified method of File [File, S. E., Wardill, A. G., Psychopharmacologia, 44, 53-59, (1975)]. Male Wistar rats (Charles River) weighing 160-200 g were fasted for 24 hours prior to the experiment. They were treated orally in a volume of 5 ml/kg one hour before testing, a treated group consisted of 12 animals. The test compounds were suspended in 0,4 methylcellulose solution, the control group was treated with methylcellulose. All procedures were carried out in a quiet, air-conditioned laboratory between 9:00 and 13:00 hours at ambient temperature (23°+2° C.). Locomotor and head-dipping activity were measured using automated test chambers (Digiscan, OMNITECH Electronics Inc., Columbus, Ohio). The floor of each box contained 4 equally spaced holes (3.5 cm in diameter) through which rat could pop its head. Interruptions of infrared beams (16 of them is located 1.0 cm below and an other […] above the floor level) were automatically recorded by digiscan analyser and then transmitted to a computer and analysed by OASIS softwer. The hole-board testing involved placing a rat in the center of the floor and allowing it to explore for 5 minutes.
At the end of each trial any boluses were removed and the box was thoroughly wiped. Minimum effective doses of the compounds were calculated from the head-dipping activity values.

Male Wistar rats = assay: Vogel Test (Lick Conflict Test), anxiolytic activity; format: in vivo; conditions: Rattus norvegicus, po, 1 h, p.o., one hour before testing, read-out: Minimum effective dose (mg/kg, p.o.)
Experimental: 1. Vogel Test (Lick Conflict Test)
Male Wistar rats of 160 to 180 g body weight were kept free of food and drinking water for 24 and 48 hours, respectively. The test and carrier substances (0.4% methyl-cellulose) were administered orally one hour before testing. Groups consisting of 8 animals were used. The rats within the experimental chamber were provided with drinking water through an inserted tube. After the animals' each twenty lapping for water the device emitted a 1.4 mA intensity electric shock through the drinking tube. During 5 minutes the shocks tolerated by the animals in order to quench their thirst were counted. The effect of treatment was expressed as the % increase of the tolerated shocks. The minimum effective dose (MED) was determined for each test compound (Vogel, J. R., Beer, B., Clody, D. E.: Psycho-pharmacologia (Berl.) 21, 1 /1971/).

in vivo = conditions: mouse, NMRI mice, 7 days observation
Experimental: White mice belonging to the NMRI strain (body weight 20 to 25 g. both male and female) were used, 6 animals for each dose. The test compound was administered orally in a volume of 20 ml/kg, the maximum oral and intraperitoneal doses were 1000 mg/kg and 300 mg/kg, respectively. […] The mice were kept under usual laboratory conditions.

[3] = ip, read-out: LD50 (mg/kg, i.p.)
[4] = po, read-out: LD50 (mg/kg, p.o.)

Structure (SMILES) | minimal effective dose [1] [mg/kg] | minimal effective dose [2] [mg/kg] | minimal effective dose (Male Wistar rats) [mg/kg] | LD50 at 168 h (in vivo; [3]) [mg/kg] | LD50 at 168 h (in vivo; [4]) [mg/kg] | times more effective than diazepam ([1]; elevated plus maze, relative to diazepam) [times]
CN1C(=O)CN=C(c2ccccc2)c2cc(Cl)ccc21 [Diazepam, reference compound] | 2.5 | 0.1 | 0.1 |  |  | 
COc1cc2cc(C)nc(C=Cc3ccc(Cl)cc3)c2cc1OC [Example 2, 1-(4-chlorostyryl)-3-methyl-6,7-dimethoxyisoquinoline] |  |  |  | > 300 | > 1000 | 
FC(F)(F)c1ccc(C=Cc2nccc3cc4c(cc23)OCO4)cc1 [Example 3, 6,7-methylenedioxy-1-[(4-trifluoromethyl)-styryl]-isoquinoline] | 0.1 | 0.0001 | 1e-05 | > 300 | > 1000 | 25
COc1cc2cc(C)nc(C=Cc3ccc([N+](=O)[O-])cc3)c2cc1OC [Example 4, 3-methyl-6,7-dimethoxy-1-(4-nitrostyryl)-isoquinoline] |  |  | 0.01 | > 300 | > 1000 | 
COc1cc2ccnc(C=Cc3ccc(F)cc3)c2cc1OC [Example 5, 1-(4-fluorostyryl)-6,7-dimethoxyisoquinoline] |  |  | 0.0003 | > 300 | > 1000 | 
COc1cc2ccnc(C=Cc3ccc(C(F)(F)F)cc3)c2cc1OC [Example 6, 6,7-dimethoxy-1-[4-(trifluoromethyl)-styryl]-isoquinoline] |  | 0.0001 | 0.01 | > 300 | > 1000 | 
COc1ccc(C=Cc2nccc3cc(OC)c(OC)cc23)cc1OC [Example 7, 1-(3,4-dimethoxystyryl)-6,7-dimethoxyisoquinoline] |  |  |  | > 300 | 1000 | 
Clc1ccc(C=Cc2nccc3ccccc23)c(Cl)c1 [Example 8, 1-(2,4-dichlorostyryl)-isoquinoline] |  |  |  | > 300 | > 1000 | 
COc1cc2cc(C)nc(C=Cc3ccc(C#N)cc3)c2c(OC)c1OC [Example 9, 1-(4-cyanostyryl)-3-methyl-6,7,8-trimethoxyisoquinoline] |  |  | 0.01 | > 300 | > 1000 | 
Cc1cc2cc3c(cc2c(C=Cc2cccc(Br)c2)n1)OCO3 [Example 19, 1-(3-bromostyryl)-3-methyl-6,7-methylenedioxyisoquinoline] |  |  |  | > 300 | > 1000 | 
COc1ccc(C=Cc2nccc3cc4c(cc23)OCO4)cc1OC [Example 20, 1-(3,4-dimethoxystyryl)-6,7-methylenedioxyisoquinoline] |  |  |  | > 300 | > 1000 | 
COc1ccc(C=Cc2nccc3cc(OC)c(OC)cc23)cc1 [Example 21, 6,7-dimethoxy-1-(4-methoxystyryl)-isoquinoline] |  | 0.01 | 0.03 | > 300 | > 1000 | 
